Values quoted from earlier work, collected in patent US7713550B2, “Controlled release sodium valproate formulation” (Andrx Corporation, priority 2004, dated 2010).

Settings: for valproic acid

solubility: 1270 µg/mL
SMILES: CCCC(CCC)C(=O)O [divalproex sodium]
